{"source": "paper PMC8194028", "about": "“Engineering and characterization of human β-defensin-3 and its analogues and microcin J25 peptides against Mannheimia haemolytica and bovine neutrophils” (Veterinary Research, 2021)", "key": {"[1]": {"test_system": "M. haemolytica", "experiment": "Inhibition of visible growth (MIC assay, optical density method)", "format": "cell-based, Mannheimia haemolytica", "details": "10 000–25 000 bacteria/well; compared with control wells", "method": "(§1) Wild-type HBD3, its analogues, and MccJ25 were tested against M. haemolytica-A1 using optical density method and colony count assay. Briefly, an aliquot (5 µL) from bacteria suspension stored at −80 °C was put in 5 mL BHI broth at 37 °C for 18 h. An aliquot (10 µL) from this overnight culture was added to fresh BHI broth and incubated at 37 °C for a further 5 h to obtain mid-log phase bacteria. The culture was then centrifuged for 10 min at 800 g at 4 °C. The supernatant was discarded and the bacterial pellet was resuspended in cold, sterile sodium phosphate buffer (SPB) and washed again at 800g for 10 min at 4 °C. The pellet was resuspended in 5 mL SPB. To calculate the number of CFU/mL in the 5 h culture, six successive tenfold dilutions were made. From the last dilution 100 µL was plated in duplicate on petri dishes containing BHI agar and incubated for 24 h. After 24 h the colonies were counted in the two petri dishes and then averaged. Total number of colonies was the average number of colonies multiplied by the dilution factor.\nAll assays were carried out in sterile 96-well polypropylene flat-bottomed plates using a broth microdilution method. Two-fold serial dilutions of peptide were made in SPB, and 50 µL of each concentration of peptide was added to the wells of the assay plate. […]"}, "[2]": {"test_system": "bovine neutrophils", "experiment": "Migration inhibition assay (neutrophil migration towards fMLP)", "format": "cell-based, cattle", "details": "neutrophils with 50.0 μg/mL peptide in upper well; fMLP 114 nM in lower well; 20 min at 37 °C; three independent experiments", "method": "(§2) Neutrophils were isolated from cattle using established methods and approved by the University of Saskatchewan’s Committee on Animal Care. For each individual animal, blood was pooled into 50 mL tubes and diluted with an equal volume of PBS then 12.5 mL of the diluted blood was layered over 10 mL of Ficoll Paque PLUS (Sigma-Aldrich, St. Louis, USA) while taking care to preserve the interface between the two liquids. Following centrifugation at 400 g for 30 min at 20 °C with the brake turned off, the lymphocyte layer was discarded along with Ficoll and plasma. The pellet was washed in 20 mL PBS with centrifugation at 500 g with low brake for 10 min. The supernatant was discarded and the pellet was suspended in equal volume of sterile water and gently mixed for 20 s followed by addition of equal volume of 1.8% NaCl to restore tonicity. The mixture was centrifuged at 500 g for 10 min and followed by another washing and centrifugation at 4 °C. The resulting neutrophil pellet was resuspended in PBS. Bovine neutrophils, collected in the above manner had more than 92% purity, and their viability was greater than 95% based on Trypan blue exclusion assay. Therefore, we use the term neutrophils in the manuscript.\nSince peptides can be immunomodulatory, migration inhibition was carried out to determine if the peptides inhibit neutrophil migration. […]"}, "[3]": {"test_system": "28 species and 55 strains of Gram-positive cocci and Gram-negative fermentative and non-fermentative rods", "design": "method as in PMID 12709350", "details": "final bacterial inoculum 10^4 to 10^5/mL; cited from earlier work"}, "[4]": {"test_system": "M. haemolytica-A1", "format": "cell-based, Mannheimia haemolytica", "details": "for No. of CFU: final inoculum 5 × 10^5 cfu/mL, one of three experiments", "method": "as §1\nAll assays were carried out in sterile 96-well polypropylene flat-bottomed plates using a broth microdilution method. Two-fold serial dilutions of peptide were made in SPB, and 50 µL of each concentration of peptide was added to the wells of the assay plate. […] Positive control wells contained 50 µL of the bacteria with 50 µL of 64 µg/mL ampicillin and negative control wells contained 50 µL of SPB and 50 µL bacterial suspension. Sterility control well contained 100 µL BHI broth to test and ensure that broth was not contaminated.\nThe plates were sealed with aluminum foil and were incubated at 37 °C for 2 h then 50 µL of the contents of the well were pipetted on BHI agar plates and incubated for 24 h. The bactericidal activity was expressed as the MBC which is the concentration at which 99.9% of the colonies are killed and the Lethal dose 50 (LD50) at which 50% or more bacteria are killed. All experiments were run in triplicates.\nPeptides HBD3, its analogues and Mccj25 were assessed for Minimum bactericidal concentration (MBC). […] All the peptides have shown intermediate to potent killing activity towards M. haemolytica (Figures 2, 3). […] However, some published studies have taken final inoculum in the range of 10^4–10^5 cfu/mL [28]."}, "[5]": {"test_system": "bovine neutrophils", "experiment": "Chemotaxis assay, 48-well Boyden chamber", "format": "cell-based, cattle", "details": "peptide 50.0 μg/mL in lower well; 20 min at 37 °C; three independent experiments; ANOVA with Dunnett, P < 0.05", "method": "as §2\nWe used fMLP ([…]) as the chemoattractant. […] The cells within the filter pores were then counted in five random fields under light microscope at 40×. […]"}}, "note": "Like-named read-outs stand apart in the source and are kept apart here. Positions of bridges follow the written chain, without caps; N, C: chain ends. No end group written: not given here.", "data": [{"compound": "CC1(C)S[C@@H]2[C@H](NC(=O)[C@H](N)c3ccccc3)C(=O)N2[C@H]1C(=O)O", "note": "[Ampicillin]", "values": [{"measurement": "Inhibition of visible growth of M. haemolytica", "setting": "[1]", "value": "no growth"}]}, {"compound": "GIINTLQKYYCRVRGGRCAVLSCLPKEEQIGKCSTRGRKCCRRKK (disulfide 11-40, 18-33, 23-41 (inferred)) [HBD3, Human β-Defensin 3, reference compound]", "values": [{"measurement": "Effect of peptide on neutrophil migration towards fMLP", "setting": "[2]", "value": "none of the peptides inhibited migration"}, {"measurement": "MBC, three strains out of 55 tested (intermediate susceptibility)", "setting": "[3]", "value": 50.0, "unit": "µg/mL"}, {"measurement": "LD50", "setting": "[4]; 2 h", "value": 6.3, "unit": "µg/mL"}, {"measurement": "MBC", "setting": "[4]; 2 h", "value": 50.0, "unit": "µg/mL"}, {"measurement": "Sensitivity of M. haemolytica to the peptide (class by MBC)", "setting": "[4]; MBC assay, classification of ref 28", "value": "intermediately sensitive (as intermediately sensitive if MBC levels were 10–100 μg/mL)"}, {"measurement": "No. of CFU", "setting": "[4]; peptide 0.8 μg/mL, well row A (duplicate 1)", "value": ">400", "unit": "CFU"}, {"measurement": "No. of CFU", "setting": "[4]; peptide 0.8 μg/mL, well row B (duplicate 2)", "value": ">400", "unit": "CFU"}, {"measurement": "No. of CFU", "setting": "[4]; peptide 1.6 μg/mL, well row A (duplicate 1)", "value": ">400", "unit": "CFU"}, {"measurement": "No. of CFU", "setting": "[4]; peptide 1.6 μg/mL, well row B (duplicate 2)", "value": ">400", "unit": "CFU"}, {"measurement": "No. of CFU", "setting": "[4]; peptide 3.1 μg/mL, well row A (duplicate 1)", "value": ">400", "unit": "CFU"}, {"measurement": "No. of CFU", "setting": "[4]; peptide 3.1 μg/mL, well row B (duplicate 2)", "value": ">400", "unit": "CFU"}, {"measurement": "No. of CFU", "setting": "[4]; peptide 6.3 μg/mL, well row A (duplicate 1)", "value": 210, "unit": "CFU"}, {"measurement": "No. of CFU", "setting": "[4]; peptide 6.3 μg/mL, well row B (duplicate 2)", "value": 390, "unit": "CFU"}, {"measurement": "No. of CFU", "setting": "[4]; peptide 12.5 μg/mL, well row A (duplicate 1)", "value": 42, "unit": "CFU"}, {"measurement": "No. of CFU", "setting": "[4]; peptide 12.5 μg/mL, well row B (duplicate 2)", "value": 101, "unit": "CFU"}, {"measurement": "No. of CFU", "setting": "[4]; peptide 25.0 μg/mL, well row A (duplicate 1)", "value": 31, "unit": "CFU"}, {"measurement": "No. of CFU", "setting": "[4]; peptide 25.0 μg/mL, well row B (duplicate 2)", "value": 9, "unit": "CFU"}, {"measurement": "No. of CFU", "setting": "[4]; peptide 50.0 μg/mL, well row A (duplicate 1)", "value": 0, "unit": "CFU"}, {"measurement": "No. of CFU", "setting": "[4]; peptide 50.0 μg/mL, well row B (duplicate 2)", "value": 0, "unit": "CFU"}, {"measurement": "No. of CFU", "setting": "[4]; peptide 100.0 μg/mL, well row A (duplicate 1), 2 h 37 °C, 50 μL plated, 24 h", "value": 0, "unit": "CFU"}, {"measurement": "No. of CFU", "setting": "[4]; peptide 100.0 μg/mL, well row B (duplicate 2)", "value": 0, "unit": "CFU"}, {"measurement": "Chemotaxis of bovine neutrophils towards peptide (migrated neutrophils vs PBS)", "setting": "[5]", "value": "chemotactic"}]}]}
